Measurements published in patent US20220372585A1, “Sensors for Aromatic Compounds and Methods of Making and Using Same” (Washington University, priority 2021, published 2022).
Where a chain is given by its changes, count along the chain named. Where “and” joins values, the source holds several entries; their conditions need not be identical. Equal entries are not always repeated. Entries after “also recorded” stand apart in the source; their conditions may differ.

Assays:
[1] = molecular target: T1, E274Q+D103S TyrR (Escherichia coli, UniProt P07604, D103S/E274Q); test: cell-based; assay type: cell-based, E. coli; details: ligand alone, listed as Tyr
T1 construct: expressed in transfected cells; host or cells: E. coli Nissle 1917 (EcN), plasmid pAGR159
Procedure: (§1) Everything but (Eb) medium was prepared by supplementing M9 minimal medium with 1 mM MgSO4, […]), 0.4% w/v glucose, and all non-aromatic amino acids (0.8 mM alanine, 5 mM arginine, 0.4 mM asparagine, 0.4 mM aspartate, 0.1 mM cysteine, 0.6 mM glutamate, 0.6 mM glutamine, 0.8 mM glycine, 0.2 mM histidine, 0.4 mM isoleucine, 0.8 mM leucine, 0.4 mM lysine, 0.2 mM methionine, 0.4 mM proline, 10 mM serine, 0.4 mM threonine, and 0.6 mM valine). […] Experimental cultures were prepared by diluting overnight cultures 200× into 0.6 mL fresh Eb medium supplemented with the respective ligands (Phe and Tyr) in 2 mL 96-deep well plates (Eppendorf, Hamburg, Germany). Cultures were grown for 8 h at 37° C. and 250 rpm before sampled for fluorimetry or flow cytometry analysis. All medium was supplemented with the relevant antibiotics for plasmid maintenance ([…]).
(§2) […] culture samples were collected and transferred to 96-well assay microplates (clear, flat bottom black, Greiner Bio-One). The fluorescence and culture absorbance (Abs) were measured using a Tecan microplate reader (Infinite M200 Pro) as previously described. The fluorescence of GFP was measured with an excitation at 483 nm and emission at 530 nm. The Abs of the samples was measured at 600 nm. The measured fluorescence was normalized by dividing by the Abs and subtracting the same ratio obtained from non-fluorescent wild-type cells (Equation 1).
(§3) Flow cytometry was performed as previously described. […] Cytometry data was gated by forward and side scatter.

[2] = molecular target: T2, E274Q+T14V TyrR (Escherichia coli, UniProt P07604, E274Q/T14V); test: cell-based; assay type: cell-based, E. coli; details: ligand alone, listed as Tyr
T2 construct: expressed in transfected cells; host or cells: E. coli Nissle 1917 (EcN), plasmid pAGR157
Procedure: as §1, §2, §3

[3] = molecular target: T3, R10F TyrR (Escherichia coli, UniProt P07604, R10F); test: cell-based; assay type: cell-based, E. coli
T3 construct: expressed in transfected cells; host or cells: E. coli Nissle 1917 (EcN), plasmid pAGR473
Procedure: as §1, §2, §3

[4] = molecular target: T4, wild-type TyrR (Escherichia coli, UniProt P07604); test: cell-based; assay type: cell-based, E. coli
T4 construct: tyrR (WT); expressed in transfected cells; host or cells: E. coli Nissle 1917 (EcN)
Procedure: as §1, §2, §3

[5] = system: G494S TynA with A81T FeaR; assay type: cell-based, E. coli MG1655; details: G494S*; 24 h; FIG. 4C
Procedure: as §3

[6] = system: wild-type TynA and A81L FeaR; test: microbe, parasite or virus in culture; assay type: cell-based, E. coli MG1655; details: A81L FeaR; 24 h; FIG. 5C
Procedure: as §3

[7] = system: TynA-FeaR sensors (best performing variants); test: TynA-FeaR sensor activity and specificity in richer media, amines and carboxylic acids; assay type: cell-based, E. coli; details: 1 mM, 24 h; minimal medium with casamino acids and LB medium; FIG. 29
Text: FIG. 29A-FIG. 29B. TynA-FeaR sensor activity and specificity in richer media, related to FIG. 6A-FIG. 6E. […] PtynA was regulated by the specified variants of TynA and FeaR. The response of the G494S TynA mutant sensors was not determined (ND) for DOPAC, PAA, HPAA, or IAA. Values and error bars are the average and standard deviation of biological triplicate, respectively.
To further confirm the specificity of the best performing sensors, the response of each to the four amines and the four respective carboxylic acids, 3,4-dihydroxyphenylacetic acid (DOPAC), phenylacetic acid (PAA), 4-hydroxyphenylacetic acid (HPAA), and indole-3-acetic acid (IAA) was tested in minimal medium with casamino acids and LB medium (see e.g., FIG. 29A-FIG. 29B). […] All mutant sensors remained specific to PEA or Tyra in minimal medium with casamino acids.
as §3

[8] = molecular target: T5, WT TrpR (Escherichia coli, UniProt P0A881); test: WT TrpR system, repression of GFP expression; assay type: cell-based, E. coli
T5 construct: trpR (WT); expressed in transfected cells; host or cells: E. coli Nissle 1917 (EcN), genomic trpR knocked out; plasmid pMBA035 (P17-trpR)
Text: Among the various aspects of the present disclosure is the provision of systems and methods for detecting aromatic compounds. An aspect of the present disclosure provides for a method of protein engineering (e.g., a regulator protein) comprising: mutagenizing specific amino acids in and around a ligand-binding site of a protein, wherein the mutagenizing enables changes in ligand-protein binding specificity while maintaining protein-DNA interaction and thus downstream gene expression control; and/or linking ligand-protein binding to output response. An aspect of the present disclosure provides for an engineered molecular sensor. […] In some embodiments, the engineered regulator protein or the ligand-protein binding site or a sequence encoding the engineered regulator protein or the ligand-protein binding site of the engineered regulator protein is at least about 80% identical to a WT regulator protein or a WT regulator ligand-protein binding site; or a sequence encoding the engineered regulator protein or ligand binding site thereof is at least about 80% identical to a sequence encoding the WT regulator protein or the WT regulator ligand-protein binding site; or functional fragment thereof, the engineered regulator protein having ligand binding activity. In some embodiments, the engineered molecular sensor is optionally genomically integrated into a microorganism, optionally selected from a probiotic or is a purified cell-free sensor. In some embodiments, the engineered regulator protein or enzyme is an engineered TrpR, TyrR, TynA, or FeaR protein. […] In some embodiments, the engineered regulator protein is an engineered TrpR and is a tryptophan (Trp)-, 5-hydroxytryptophan (5-HTP)-, or tryptamine (Trpta)-specific sensor. In some embodiments, the engineered regulator protein or enzyme is an engineered TrpR, TyrR, TynA, or FeaR, and/or wherein the engineered TrpR, TyrR, TynA, or FeaR comprises at least one mutation to a ligand-protein binding site having specific amino acid binding activity. […]

[9] = molecular target: T6, TrpR variant OD (Escherichia coli, UniProt P0A881, A80L/G78C/I79C/K72S/T83R); test: TrpR OD variant with synthetic Ptrp promoter, repression of GFP expression; assay type: cell-based, E. coli
T6 construct: trpR (OD); expressed in transfected cells; host or cells: E. coli Nissle 1917 (EcN), genomic trpR knocked out; plasmid pMBA103 (P17-trpR(OD))
Text: (§4) Among the various aspects of the present disclosure is the provision of systems and methods for detecting aromatic compounds. An aspect of the present disclosure provides for a method of protein engineering (e.g., a regulator protein) comprising: mutagenizing specific amino acids in and around a ligand-binding site of a protein, wherein the mutagenizing enables changes in ligand-protein binding specificity while maintaining protein-DNA interaction and thus downstream gene expression control; and/or linking ligand-protein binding to output response. An aspect of the present disclosure provides for an engineered molecular sensor. […] In some embodiments, the engineered regulator protein or the ligand-protein binding site or a sequence encoding the engineered regulator protein or the ligand-protein binding site of the engineered regulator protein is at least about 80% identical to a WT regulator protein or a WT regulator ligand-protein binding site; or a sequence encoding the engineered regulator protein or ligand binding site thereof is at least about 80% identical to a sequence encoding the WT regulator protein or the WT regulator ligand-protein binding site; or functional fragment thereof, the engineered regulator protein having ligand binding activity. […]

[10] = molecular target: T7, TrpR variant O1 (Escherichia coli, UniProt P0A881, A80R/G78N/I79W/K72S/T83K); test: TrpR O1 variant with synthetic Ptrp promoter, repression of GFP expression; assay type: cell-based, E. coli
T7 construct: trpR (O1); expressed in transfected cells; host or cells: E. coli Nissle 1917 (EcN), genomic trpR knocked out; plasmid pMBA173 (P17-trpR(O1))
Text: as §4

[11] = system: PtynA; test: Ligand specificity of 20 FeaR variants at the 81st position with wild-type TynA, fluorescence from PtynA; assay type: cell-based, E. coli; details: 0.25 mM DA, PEA, Tyra, Trypta, 24 h
Text: FIG. 5A-FIG. 5D. Engineering FeaR to identify improved phenylethylamine-specific sensors (A) Computationally predicted ligand-binding region of FeaR. Key residues are shown with (magenta) and without (green) phenylethylamine-aldehyde (PEA-aldehyde; cyan) complexed. The structure was predicted using the Robetta web server. Ligand docking was modeled using the Rosetta Ligand Docking Server hosted by ROSIE. The image was generated using PyMOL. […] PtynA was regulated by wild-type TynA and 20 different FeaR variants with the specified amino acid in the 81st position. Residues for each group are listed from left to right in order of increasing size. Non-zero values and error bars are the average and standard deviation of biological triplicate, respectively. Variants with significant expression in response to PEA were determined by unpaired t tests (p<0.05). (C) Transfer curve of PtynA after 24 h of induction with DA, PEA, Tyra, and Trypta. PtynA was regulated by wild-type TynA and the A81L FeaR mutant. Points represent experimental data while the line represents the fitted curve (see e.g., TABLE 2). […] Values and error bars are the average and standard deviation of biological triplicate, respectively. (D) Reorganization of […] with respect to the size and hydropathy index of the 81st residue (see e.g., TABLE 3). The blue area represents characteristic values that permit binding of Tyra. See also FIG. 20-FIG. 25.
Noting the PEA selectivity given by the A81T mutation and the smallest size of the PEA-aldehyde (no OH group), followed by that of Tyra—(1 OH), DA—(2 OHs), and Trypta—(additional 5-membered ring) aldehyde (see e.g., FIG. 3A), it was hypothesized that small residues, including alanine as in wild-type FeaR, would cause ligand promiscuity, with ligand size-dependent response as shown in FIG. 3D. Slightly larger residues such as threonine would have improved selectivity toward the smallest PEA-aldehyde, but much larger or charged residues may fully eliminate ligand binding. It was also hypothesized that the hydropathy index of the 81st residue may also play a role in the sensor's performance due to differences in ligand polarities caused by the different number of hydroxyl groups. […] To test this prediction, A81 was mutated and each mutant was paired with the promiscuous wild-type TynA (see e.g., FIG. 5B). Consistent with the predictions, A81L, A81P, A81 I, and A81N were identified as PEA-specific variants, with 580-fold induction for the A81L sensor (see e.g., FIG. 5C). […] As predicted a clear pattern between the identity of residue 81 and ligand selectivity was observed (see e.g., FIG. 5D, TABLE 3).
as §3

[12] = pAGR473, FIG. 2G, 8 h, repressible
[13] = wild-type TyrR, pAGR010, FIG. 1C, 8 h

T4 sequence (P07604 whole entry): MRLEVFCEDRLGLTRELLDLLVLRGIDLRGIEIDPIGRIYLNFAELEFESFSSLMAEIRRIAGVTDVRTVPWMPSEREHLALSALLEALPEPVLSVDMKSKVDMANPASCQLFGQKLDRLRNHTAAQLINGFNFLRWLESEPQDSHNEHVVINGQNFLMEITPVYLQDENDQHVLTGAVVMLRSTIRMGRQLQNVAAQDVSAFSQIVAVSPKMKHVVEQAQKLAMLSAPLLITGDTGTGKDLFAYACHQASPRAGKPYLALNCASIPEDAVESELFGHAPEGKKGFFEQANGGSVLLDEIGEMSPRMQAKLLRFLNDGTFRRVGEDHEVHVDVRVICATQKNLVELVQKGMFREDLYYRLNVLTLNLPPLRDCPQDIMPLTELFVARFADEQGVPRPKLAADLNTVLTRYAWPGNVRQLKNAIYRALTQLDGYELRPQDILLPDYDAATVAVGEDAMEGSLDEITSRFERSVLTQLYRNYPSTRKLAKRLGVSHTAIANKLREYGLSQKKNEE
T3 sequence (P07604 whole entry R10F): as the sequence (P07604 whole entry) above, with R10F counted along it
T2 sequence (P07604 whole entry T14V/E274Q): as the sequence (P07604 whole entry) above, with T14V, E274Q counted along it
T1 sequence (P07604 whole entry D103S/E274Q): as the sequence (P07604 whole entry) above, with D103S, E274Q counted along it

N[C@@H](Cc1ccc(O)cc1)C(=O)O [Tyrosine, tyrosine]
response of PtyrP [1]: lack of response; also recorded: no apparent response | response of PtyrP [2]: lack of response; also recorded: no apparent response | EC50 ([3]; KA (half maximal constant), pAGR473, FIG. 2G, 8 h, repressible): 50 µM and 47 µM | fold repression of PtyrP ([3]; independent of the presence of Phe, listed as Tyr): ~12 fold and 15 fold | Fmax [3, 12]: 3210 | Fmin [3, 12]: 279 | n (Hill coefficient) [3, 12]: 2.3 | fold repression of PtyrP ([4]; overexpression of wild-type TyrR): 59 fold | Fmax [4, 13]: 2470 | Fmin [4, 13]: 38.1 | n (Hill coefficient) [4, 13]: 1.9 | EC50 ([4]; wild-type TyrR, pAGR010, FIG. 1C, 8 h, read-out: KA (half maximal constant)): 26 µM | response [5]: lack of response | response [6]: lack of response

O=C(O)Cc1ccc(O)cc1 [HPAA, 4-hydroxyphenylacetic acid]
response of the sensors [7]: No sensors significantly responded

O=C(O)Cc1c[nH]c2ccccc12 [IAA, indole-3-acetic acid]
response of the sensors [7]: No sensors significantly responded

O=C(O)Cc1ccc(O)c(O)c1 [DOPAC, 3,4-dihydroxyphenylacetic acid]
response of the sensors [7]: No sensors significantly responded

O=C(O)Cc1ccccc1 [PAA, phenylacetic acid]
response of the sensors [7]: No sensors significantly responded

N[C@@H](Cc1c[nH]c2ccccc12)C(=O)O [Trp, tryptophan]
fold repression of GFP expression [8]: 120 fold | fold repression [9]: about 5 fold | fold repression [10]: about 60 fold

B1: Leucine (L): FeaR variant with leucine in the 81st position, paired with wild-type TynA (protein, UniProt Q47129 1-301, looked up, variant A81L)
Transcriptional activator FeaR: MNPAVDNEFQQWLSQINQVCGNFTGRLLTERYTGVLDTHFAKGLKLSTVTTSGVNLSRTWQEVKGSDDAWFYTVFQLSGQLIMEQDERQVQIGAGDITLLDASRPCSLYWQESSKQISLLLPRTLLEQYFPHQKPICAERLDADLPMVQLSHRLLQESMNNPALSETESEAALQAMVCLLRPVLHQRESVQPRRERQFQKVVTLIDDNIREEILRPEWIAGETGMSVRSLYRMFADKGLVVAQYIRNRRLDFCADAIRHAADDEKLAGIGFHWGFSDQSHFSTVFKQRFGMTPGEYRRKFR
Phenotype [11]: PEA specific | Selectivity [11]: PEA only

B2: Glutamine (Q): FeaR variant with glutamine in the 81st position, paired with wild-type TynA (protein, UniProt Q47129 1-301, looked up, variant A81Q)
Transcriptional activator FeaR: B1 Transcriptional activator FeaR with L81Q
Phenotype [11]: No activity | Selectivity [11]: No activity

B3: Phenylalanine (F): FeaR variant with phenylalanine in the 81st position, paired with wild-type TynA (protein, UniProt Q47129 1-301, looked up, variant A81F)
Transcriptional activator FeaR: B1 Transcriptional activator FeaR with L81F
Phenotype [11]: No activity | Selectivity [11]: No activity
